This note sets out measurements from patent US12595230B2, “Substituted 6,7-dihydro-5H-benzo[7]annulene compounds and their derivatives, processes for their preparation and therapeutic uses thereof” (Sanofi, priority 2020, dated 2026).

SMILES strings stand for the structures. pIC50: −log10 of the molar value.

The assay has as its target T1, ERα (Homo sapiens, UniProt P03372).
T1 construct: host or cells: MCF7
T1 sequence (P03372 1-595): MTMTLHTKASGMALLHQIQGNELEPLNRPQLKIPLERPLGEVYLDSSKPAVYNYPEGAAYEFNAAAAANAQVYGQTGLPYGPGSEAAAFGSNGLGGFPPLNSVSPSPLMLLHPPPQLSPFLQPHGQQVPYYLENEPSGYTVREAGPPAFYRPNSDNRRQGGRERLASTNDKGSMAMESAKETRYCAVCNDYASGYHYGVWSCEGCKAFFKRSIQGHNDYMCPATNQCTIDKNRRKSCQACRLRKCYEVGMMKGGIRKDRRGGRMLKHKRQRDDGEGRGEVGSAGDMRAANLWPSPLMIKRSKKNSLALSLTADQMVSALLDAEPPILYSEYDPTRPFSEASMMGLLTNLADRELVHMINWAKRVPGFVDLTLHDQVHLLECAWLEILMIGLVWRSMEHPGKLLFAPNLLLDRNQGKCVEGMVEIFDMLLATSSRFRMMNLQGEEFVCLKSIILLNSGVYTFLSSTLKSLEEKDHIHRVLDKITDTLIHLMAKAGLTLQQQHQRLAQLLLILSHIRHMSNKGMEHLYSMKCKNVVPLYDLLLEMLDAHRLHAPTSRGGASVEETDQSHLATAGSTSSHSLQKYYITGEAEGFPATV
In words: Estrogen receptor degradation activity: breast cancer cell ERα in cell western assay (MCF7 cells). The format is cell-based. The note with it: for % Degradation At 0.3 μM: 4 hours, relative to fulvestrant 0.1 μM positive control; for DC50: read-out: Degradation IC50. The procedure:
Test: Estrogen Receptor Degradation Activity Said test involves measuring the in vitro degradation activity of the compounds of the Table 1a. The measurements of the degradation activities were made using a breast cancer cell ERα in cell western assay as described hereunder. MCF7 cells (ATCC) were seeded in 384 wells microplate (collagen coated) at a concentration of 10000 cells/30 μL per well in red phenol free MEM alpha medium (invitrogen) containing 5% charcoal dextran striped FBS. The following day, 9 points serial 1:5 dilution of each compound was added to the cells in 2.5p L at final concentrations ranging from 0.3-0.0000018 μM (in table 2), or 0.1 μM for fulvestrant (using as positive control). At 4 hours post compound addition the cells were fixed by adding 25 μL of formalin (final concentration 5% formalin containing 0.1% triton) for 10 minutes at room temperature and then washed twice with PBS. Then, 50 μL of LI-COR blocking buffer containing 0.1% Triton was added to plate for 30 minutes at room temperature. LI-COR blocking buffer was removed and cells were incubated overnight at cold room with 50 μL anti-ER rabbit monoclonal antibody (Thermo scientific MA1-39540) diluted at 1:1000 in LI-COR blocking buffer containing 0.1% tween-20. Wells which were treated with blocking buffer but no antibody were used as background control. Wells were washed twice with PBS (0.1% tween-20) and incubated at 37° C. for 60 minutes in LI-COR (0.1% tween-20) containing goat anti-rabbit antibody Alexa 488 (1:1000) and Syto-64 a DNA dye (2 μM final concentration). Cells were then washed 3 times in PBS and scanned in ACUMEN explorer (TTP-Labtech). Integrated intensities in the green fluorescence and red fluorescence were measured to determine the levels of ERα and DNA respectively. The degradation activity with respect to estrogen receptors in this test is given by the concentration which degrades 50% of the estrogen receptor (or IC50) in nM. […] DMSO−fulvestrant)).

[1] abbreviates: 4 hours post compound addition, concentration which degrades 50% of the estrogen receptor.

As to `Cc1ccc(C2=C(c3ccc(CC4CN(CCCF)C4)cc3)c3cc(F)c(C(=O)O)c(F)c3CCC2)c(Cl)c1` [Example 217, 8-(2-chloro-4-methylphenyl)-2,4-difluoro-9-(4-((1-(3-fluoropropyl)azetidin-3-yl)methyl)phenyl)-6,7-dihydro-5H-benzo[7]annulene-3-carboxylic acid], the “% Degradation At 0.3 μM” value worked out at 86%. For the same compound, under setting [1], the DC50 came to 6.2 nM.

For the compound `O=C(O)c1ccc2c(c1)CCCC(c1ccc(F)cc1CC(F)(F)F)=C2c1ccc(CC2CN(CCCF)C2)cc1` [Example 272, 8-(4-fluoro-2-(2,2,2-trifluoroethyl)phenyl)-9-(4-((1-(3-fluoropropyl)azetidin-3-yl)methyl)phenyl)-6,7-dihydro-5H-benzo[7]annulene-3-carboxylic acid], the “% Degradation At 0.3 μM” value worked out at 90%. Besides, under setting [1], the DC50 was 0.6 nM.

Consider `O=C(O)c1ccc2c(c1)CCCC(c1ccccc1C(F)(F)F)=C2c1ccc(CC2(F)CN(CCCF)C2)cc1` [Example 238, 9-(4-((3-fluoro-1-(3-fluoropropyl)azetidin-3-yl)methyl)phenyl)-8-(2-(trifluoromethyl)phenyl)-6,7-dihydro-5H-benzo[7]annulene-3-carboxylic acid], for which the “% Degradation At 0.3 μM” value turned out to be 81%. In addition, the DC50 under setting [1] is 1.2 nM.

For `Cc1c(Cl)cccc1C1=C(c2ccc(CC3CN(CCC(F)F)C3)cc2)c2ccc(C(=O)O)cc2CCC1` [Example 293, 8-(3-chloro-2-methylphenyl)-9-(4-((1-(3,3-difluoropropyl)azetidin-3-yl)methyl)phenyl)-6,7-dihydro-5H-benzo[7]annulene-3-carboxylic acid], the “% Degradation At 0.3 μM” value was determined as 86%. The DC50 under setting [1] is 0.6 nM.

Turning to `Cc1ccc(C2=C(c3ccc(CC4CN(CCCF)C4)cc3)c3cc(F)c(O)c(F)c3CCC2)c(Cl)c1` [Example 265, 8-(2-chloro-4-methylphenyl)-2,4-difluoro-9-(4-((1-(3-fluoropropyl)azetidin-3-yl)methyl)phenyl)-6,7-dihydro-5H-benzo[7]annulen-3-ol], the “% Degradation At 0.3 μM” value was determined as 83%. For the same compound, under setting [1], the DC50 worked out at 0.4 nM.

With `CCC1CCc2cc(C(=O)O)ccc2C(c2ccc(CC3CN(CCCF)C3)cc2)=C1c1ccc(Cl)cc1` (single isomer, unassigned) [Example 329, 8-(4-chlorophenyl)-7-ethyl-9-(4-((1-(3-fluoropropyl)azetidin-3-yl)methyl)phenyl)-6,7-dihydro-5H-benzo[7]annulene-3-carboxylic acid], the “% Degradation At 0.3 μM” value worked out at 89%. Under setting [1], the DC50 came to 1.3 nM.

For `O=C(O)c1ccc2c(c1)CCCC(c1c(F)cccc1C(F)(F)F)=C2c1ccc(CC2CN(CCCF)C2)cc1` [Example 31, 8-(2-fluoro-6-(trifluoromethyl)phenyl)-9-(4-((1-(3-fluoropropyl)azetidin-3-yl)methyl)phenyl)-6,7-dihydro-5H-benzo[7]annulene-3-carboxylic acid], the “% Degradation At 0.3 μM” value was 89%. For the same compound, under setting [1], the DC50 was 0.3 nM.

Take `O=C(O)c1ccc2c(c1)CCCC(c1ccc(F)cc1C(F)(F)F)=C2c1ccc(CC2CN(CCCF)C2)cc1` [Example 26, 8-(4-fluoro-2-(trifluoromethyl)phenyl)-9-(4-((1-(3-fluoropropyl)azetidin-3-yl)methyl)phenyl)-6,7-dihydro-5H-benzo[7]annulene-3-carboxylic acid]: the “% Degradation At 0.3 μM” value was determined as 92%. The DC50 under setting [1] came out at 0.3 nM.

As for `Cc1c(C2=C(c3ccc(CC4CN(CCC(F)F)C4)cc3)c3ccc(C(=O)O)cc3CCC2)ccc(F)c1F` [Example 275, 8-(3,4-difluoro-2-methylphenyl)-9-(4-((1-(3,3-difluoropropyl)azetidin-3-yl)methyl)phenyl)-6,7-dihydro-5H-benzo[7]annulene-3-carboxylic acid], the “% Degradation At 0.3 μM” value is listed as 89%. Moreover, under setting [1], the DC50 was found to be 0.4 nM.

On to `Cc1cc(Cl)ccc1C1=C(c2ccc(CC3CN(CCC(F)F)C3)cc2)c2ccc(C(=O)O)cc2CCC1` [Example 282, 8-(4-chloro-2-methylphenyl)-9-(4-((1-(3,3-difluoropropyl)azetidin-3-yl)methyl)phenyl)-6,7-dihydro-5H-benzo[7]annulene-3-carboxylic acid], for which the “% Degradation At 0.3 μM” value is 86%. Besides, under setting [1], the DC50 was determined as 0.4 nM.

For `O=C(O)c1ccc2c(c1)CCCC(c1c(Cl)cccc1C(F)(F)F)=C2c1ccc(CC2CN(CCCF)C2)cc1` [Example 34, 8-(2-chloro-6-(trifluoromethyl)phenyl)-9-(4-((1-(3-fluoropropyl)azetidin-3-yl)methyl)phenyl)-6,7-dihydro-5H-benzo[7]annulene-3-carboxylic acid], the “% Degradation At 0.3 μM” value was found to be 79%. For the same compound, under setting [1], the DC50 stood at 0.2 nM.

As to `CC1CCc2cc(C(=O)O)ccc2C(c2ccc(CC3CN(CCCF)C3)cc2)=C1c1ccc(Cl)cc1Cl` (single isomer, unassigned) [Example 303, 8-(2,4-dichlorophenyl)-9-(4-((1-(3-fluoropropyl)azetidin-3-yl)methyl)phenyl)-7-methyl-6,7-dihydro-5H-benzo[7]annulene-3-carboxylic acid], the “% Degradation At 0.3 μM” value was 90%. In addition, the DC50 under setting [1] was 0.4 nM.

As to `O=C(O)c1c(F)cc2c(c1F)CCCC(c1ccc(Cl)cc1Cl)=C2c1ccc(CC2CN(CCCF)C2)cc1` [Example 225, 8-(2,4-dichlorophenyl)-2,4-difluoro-9-(4-((1-(3-fluoropropyl)azetidin-3-yl)methyl)phenyl)-6,7-dihydro-5H-benzo[7]annulene-3-carboxylic acid], the “% Degradation At 0.3 μM” value is given as 82%. In addition, the DC50 under setting [1] was 6.6 nM.

For the compound `COc1ccc(C2=C(c3ccc(CC4CN(CCCF)C4)cc3)c3ccc(C(=O)O)cc3CCC2)c(F)c1` [Example 16, 8-(2-fluoro-4-methoxyphenyl)-9-(4-((1-(3-fluoropropyl)azetidin-3-yl)methyl)phenyl)-6,7-dihydro-5H-benzo[7]annulene-3-carboxylic acid], the “% Degradation At 0.3 μM” value amounted to 94%. Moreover, under setting [1], the DC50 is 0.4 nM.

`COc1cc(C2=C(c3ccc(CC4CN(CCCF)C4)cc3)c3ccc(C(=O)O)cc3CCC2)ccn1` [Example 21, 9-(4-((1-(3-fluoropropyl)azetidin-3-yl)methyl)phenyl)-8-(2-methoxypyridin-4-yl)-6,7-dihydro-5H-benzo[7]annulene-3-carboxylic acid]: the “% Degradation At 0.3 μM” value was determined as 89%. For the same compound, the DC50 under setting [1] worked out at 2.1 nM.

As for `O=C([O-])c1ccc2c(c1)CCCC(c1cc(F)cc(C(F)F)c1)=C2c1ccc(CC2CN(CCCF)C2)cc1.[Na+]` [Example 251, sodium 8-(3-(difluoromethyl)-5-fluorophenyl)-9-(4-((1-(3-fluoropropyl)azetidin-3-yl)methyl)phenyl)-6,7-dihydro-5H-benzo[7]annulene-3-carboxylate], the “% Degradation At 0.3 μM” value was 87%. Also, the DC50 under setting [1] stood at 0.7 nM.

In the case of `O=C(O)c1ccc2c(c1)CCCC(c1cccc(F)c1C(F)(F)F)=C2c1ccc(CC2CN(CCC(F)F)C2)cc1` [Example 278, 9-(4-((1-(3,3-difluoropropyl)azetidin-3-yl)methyl)phenyl)-8-(3-fluoro-2-(trifluoromethyl)phenyl)-6,7-dihydro-5H-benzo[7]annulene-3-carboxylic acid], the “% Degradation At 0.3 μM” value was 84%. This compound also gave a negative-log IC50 (pIC50) under setting [1] of 9.70.

Turning to `O=C(O)c1ccc2c(c1)CCCC(c1cccc(CCO)c1)=C2c1ccc(CC2CN(CCCF)C2)cc1` [Example 319, 9-(4-((1-(3-fluoropropyl)azetidin-3-yl)methyl)phenyl)-8-(3-(2-hydroxyethyl)phenyl)-6,7-dihydro-5H-benzo[7]annulene-3-carboxylic acid], the “% Degradation At 0.3 μM” value was 73%. Under setting [1], the DC50 stood at 48 nM.
